Results on four sequences are retold here after US11142547B2, “Polypeptide and use thereof” (Genoimmune Therapeutics Co., Ltd., priority 2016, dated 2021).

This assay concerns human non-small cell lung adenocarcinoma cell line H2087—polypeptide FLLGNLFFV (SEQ ID NO:1). Briefly: Polypeptide + Freund's adjuvant vaccine in subcutaneous tumor-modeled mice. The note with it: adjuvant+polypeptide 100 μg s.c., vs adjuvant alone and adjuvant+wild-type polypeptide groups; FIG. 5. The class given is in vivo, NOD/SCID mice. Here is the method:
The human non-small cell lung adenocarcinoma cell line NCI-H2087 which is HLA-A*0201 positive was purchased from ATCC (Cat. No.: CRL-5922). The cell line NCI-H2087 was incubated in the Dulbecco's Modified Eagle Medium (DMEM) containing 10% fetal calf serum, 100 U/mL penicillin and 100 U/mL streptomycin in an incubator under 37° C. and 5% CO2, and subsequently infected with the lentivirus expressing the mutant polypeptide (depicted in […], SEQ ID NO:1) as prepared in 6.1. Afterwards, the infected cells were incubated with the Puromycin antibiotic for a certain duration to screen out those viable infected cells, i.e., obtaining the human non-small cell lung adenocarcinoma cell line H2087 which expresses the mutant polypeptide (depicted in […], SEQ ID NO:1) and named as the human non-small cell lung adenocarcinoma cell line H2087—polypeptide […] (SEQ ID NO:1).
After isolated with Ficoll solution from 600 to 900 ml anticoagulant peripheral blood from a healthy volunteer, the collected PBMCs in a concentration of 2×10^7 cells/0.5 ml were intraperitoneally injected into each of 300 NOD SCID mice without immune leakage, so as to reconstruct a human immune system in the NOD SCID mice, with the mice after 4 weeks selected for subsequent inoculation of the human non-small cell lung adenocarcinoma cell line H2087—polypeptide […] obtained in 6.2.
The human non-small cell lung adenocarcinoma cell line H2087—polypeptide […] (SEQ ID NO:1) obtained in 6.2 was incubated in DMEM medium containing 10% fetal calf serum, 100 U/mL penicillin and 100 U/mL streptomycin in an incubator under 37° C. and 5% CO2, and then the cells were centrifuged at 3000 rpm for collection. The collected cells were washed with sterile physiological saline three times, and then diluted appropriately. To 40 μl tumor cell suspension, 10 μl 0.4% […] was added for staining, subsequently the tumor cell suspension in a concentration of 1×10^8 cells/ml was prepared after counting under microscope. 100 μl of the tumor cell suspension was inoculated into each of the NOD/SCID mice by subcutaneous injection at 4 weeks post immune reconstruction in 6.3, with daily observation of the presence/absence of infection at inoculation sites, the increase/decrease of tumor size (in the case of presence of a tumor), and measurement of the major axis (a) and the minor axis (b) of a tumor by a vernier caliper every 2 or 3 days (where the tumor size=a×b×b/2). After 7 days from inoculation, a tumor in a size of rice grain was touchable at the inoculation site. After that, the subcutaneous tumor-modeled NOD/SCID mice (modeled with H2087—polypeptide […] (SEQ ID NO:1)) were treated with a polypeptide+complete Freund's adjuvant vaccine, a polypeptide+DCs vaccine, a lentivirus-infected DCs vaccine and a DC-CTL vaccine respectively, with the tumor size and mouse survival rate observed and recorded every 2 days.
The subcutaneous tumor-modeled NOD/SCID mice obtained in 6.4 of the example 6 were divided into 6 groups randomly as below, with 6 mice per group:
Except for the adjuvant alone group, mice in other 5 groups received first immunization, by subcutaneous injection at two sites of the mouse back with 100 μg wild-type polypeptide (depicted in […], SEQ ID NO:5), 100 μg mutant polypeptide (depicted in […], SEQ ID NO:1), 100 μg mutant polypeptide's variant (depicted in […], SEQ ID NO:2), 100 μg mutant polypeptide's variant (depicted in […], SEQ ID NO:3), and 100 μg mutant polypeptide's variant (depicted in […], SEQ ID NO:4), respectively, each of which was mixed with 150 μl Freund's complete adjuvant in PBS to a final volume of 300 μl. After 2 weeks, differently-immunized mice in 5 groups received respective same-dosage booster immunizations at 2 week interval for 4 times in total, with incomplete Freund's adjuvant for the latter three immunizations. […]
In the case of FMLGNLFFL, the Mouse survival period entry is given as “prolonging mouse survival period effectively” and the Tumor growth result is “inhibiting tumor growth”.

In the case of FLLGNLFFL, the Mouse survival period result is given as “prolonging mouse survival period effectively” and the Tumor growth result is reported as “inhibiting tumor growth”.

As for FMLGNLFFV, the Mouse survival period entry is given as “prolonging mouse survival period effectively” and the Tumor growth result is “inhibiting tumor growth”.

With FLLGNLFFV, the Mouse survival period entry is listed as “prolonging mouse survival period effectively” and the Tumor growth result was “inhibiting tumor growth”.
